From BindingDB's records for doi:10.1016/j.bmcl.2010.08.063 (Merck Research Laboratories, 2010)

Assay: Positive modulation of GluR1

EC50 [nM]	Structure (SMILES)
251	O=C(Cn1nc(C(F)(F)F)c2c1CCCC2)Nc1sc2c(c1C(=O)N[C@@H]1CCNC1)CCCC2
251	O=C(Cn1nc(C(F)(F)F)c2c1CCCC2)Nc1sc2c(c1CO)CCCC2
794	NCc1cn(CC(=O)Nc2sc3c(c2C(N)=O)CCCC3)nc1C(F)(F)F
126	CNCc1cn(CC(=O)Nc2sc3c(c2C(N)=O)CCCC3)nc1C(F)(F)F
794	CCNCc1cn(CC(=O)Nc2sc3c(c2C(N)=O)CCCC3)nc1C(F)(F)F
501	CN(C)Cc1cn(CC(=O)Nc2sc3c(c2C(N)=O)CCCC3)nc1C(F)(F)F
3160	CC(C)NCc1cn(CC(=O)Nc2sc3c(c2C(N)=O)CCCC3)nc1C(F)(F)F
1580	COCCNCc1cn(CC(=O)Nc2sc3c(c2C(N)=O)CCCC3)nc1C(F)(F)F
631	CCN(CC)Cc1cn(CC(=O)Nc2sc3c(c2C(N)=O)CCCC3)nc1C(F)(F)F
631	NC(=O)c1c(NC(=O)Cn2cc(CNC3CC3)c(C(F)(F)F)n2)sc2c1CCCC2
1000	NC(=O)c1c(NC(=O)Cn2cc(CN3CCC3)c(C(F)(F)F)n2)sc2c1CCCC2
316	CNCc1cn(CC(=O)Nc2sc3c(c2C(N)=O)CCCC3)nc1C(C)(C)C
316	CN(C)Cc1cn(CC(=O)Nc2sc3c(c2C(N)=O)CCCC3)nc1C(C)(C)C
1580	CC(C)(C)c1nn(CC(=O)Nc2sc3c(c2C(N)=O)CCCC3)cc1CNC1CC1
794	CCNCc1cn(CC(=O)Nc2sc3c(c2C(N)=O)CCCC3)nc1C(C)(C)C
1580	CC(C)NCc1cn(CC(=O)Nc2sc3c(c2C(N)=O)CCCC3)nc1C(C)(C)C
1580	CNCc1cn(CCC(=O)Nc2sc3c(c2C(N)=O)CCCC3)nc1C(F)(F)F
2510	CCNCc1cn(CCC(=O)Nc2sc3c(c2C(N)=O)CCCC3)nc1C(F)(F)F
2000	CCN(CC)Cc1cn(CCC(=O)Nc2sc3c(c2C(N)=O)CCCC3)nc1C(F)(F)F
1000	NC(=O)c1c(NC(=O)Cn2nc(C(F)(F)F)c3c2CCNC3)sc2c1CCCC2
1580	CNCc1cn(CC(=O)Nc2sc3c(c2C(=O)NC)CCCC3)nc1C(F)(F)F
